Source: US9815846B2 (Merck Sharp & Dohme Corp., priority 2014, dated 2017)

Each compound was assayed against human TrkA receptor (Homo sapiens (Human), UniProt P04629) (assay: DiscoverX PathHunter TrkA functional assay (NGF-stimulated U2OS cells)). Settings: U2OS cells expressing human TrkA-PK, Shc1-EA and p75NTR; compound 1 h, then NGF at ~80% of maximal response for 3 h; luminescence.
Assay type: cell-based

Chain of human TrkA receptor (P04629 33-796): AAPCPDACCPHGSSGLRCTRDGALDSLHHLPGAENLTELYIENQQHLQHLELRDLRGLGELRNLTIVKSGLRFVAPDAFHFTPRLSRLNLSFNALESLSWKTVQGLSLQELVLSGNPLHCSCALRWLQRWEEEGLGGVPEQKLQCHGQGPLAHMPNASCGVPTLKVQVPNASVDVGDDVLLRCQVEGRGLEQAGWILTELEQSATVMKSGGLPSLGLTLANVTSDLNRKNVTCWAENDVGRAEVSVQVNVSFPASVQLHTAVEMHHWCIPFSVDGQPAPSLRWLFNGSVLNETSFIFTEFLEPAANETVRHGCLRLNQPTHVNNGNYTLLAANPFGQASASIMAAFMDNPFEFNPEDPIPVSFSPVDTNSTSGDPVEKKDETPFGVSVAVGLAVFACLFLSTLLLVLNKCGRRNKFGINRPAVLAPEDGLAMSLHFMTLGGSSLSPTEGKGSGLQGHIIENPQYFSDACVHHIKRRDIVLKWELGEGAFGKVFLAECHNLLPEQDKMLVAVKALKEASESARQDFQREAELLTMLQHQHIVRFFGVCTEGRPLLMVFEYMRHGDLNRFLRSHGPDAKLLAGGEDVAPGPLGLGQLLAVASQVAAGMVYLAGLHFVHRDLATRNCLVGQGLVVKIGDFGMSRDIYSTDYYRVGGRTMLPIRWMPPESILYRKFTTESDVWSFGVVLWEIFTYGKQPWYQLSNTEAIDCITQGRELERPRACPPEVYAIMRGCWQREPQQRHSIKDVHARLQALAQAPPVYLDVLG

SMILES | IC50
O=C(Nc1cc2c(nc1-c1ccccc1)C(=O)NC2=O)c1cc(-c2ncccn2)c(C(F)(F)F)cc1F [Example 185, N-(5,7-Dioxo-2-phenyl-6,7-dihydro-5H-pyrrolo[3,4-b]pyridin-3-yl)-2-fluoro-5-(pyrimidin-2-yl)-4-(trifluoromethyl)benzamide] | 18 nM
Cn1ccc(-c2cc(C(=O)Nc3cnc4c(c3-c3ccccc3)CCNC4=O)ccc2C(F)(F)F)n1 [Example 159, 3-(1-methyl-1H-pyrazol-3-yl)-N-(8-oxo-4-phenyl-5,6,7,8-tetrahydro-1,7-naphthyridin-3-yl)-4-(trifluoromethyl)benzamide] | 260 nM
CC(N)c1ccc(-c2cnc(-c3ccccc3)c(NC(=O)c3cc(-c4ccn(C)n4)c(C(F)(F)F)cc3F)c2)nc1 (stereo not shown) [Example 178, N-(5-(1-aminoethyl)-6′-phenyl-[2,3′-bipyridin]-5′-yl)-2-fluoro-5-(1-methyl-1H-pyrazol-3-yl)-4-(trifluoromethyl)benzamide] | 0.29 nM
C[C@H](O)CNC(=O)c1cnc(-c2ccccc2)c(NC(=O)c2cc(-c3ccn(C)n3)c(C(F)(F)F)cc2F)c1 [Example 84, (S)-5-(2-fluoro-5-(1-methyl-1H-pyrazol-3-yl)-4-(trifluoromethyl)benzamido)-N-(2-hydroxypropyl)-6-phenylnicotinamide] | 1.2 nM
Cn1ccc(-c2cc(C(=O)Nc3cnc(CN4C(=O)CNC4=O)nc3-c3ccccc3)c(F)cc2C(F)(F)F)n1 [Example 96, N-(2-((2,5-dioxoimidazolidin-1-yl)methyl)-4-phenylpyrimidin-5-yl)-2-fluoro-5-(1-methyl-1H-pyrazol-3-yl)-4-(trifluoromethyl)benzamide] | 0.083 nM
O=C(Nc1cc(Cc2cnco2)cnc1-c1ccccc1)c1cc(-c2ncccn2)c(C(F)(F)F)cc1F [Example 204, 2-fluoro-N-(5-(oxazol-5-ylmethyl)-2-phenylpyridin-3-yl)-5-(pyrimidin-2-yl)-4-(trifluoromethyl)benzamide] | 8.3 nM
O=C(Nc1cc(-c2cccnc2)cnc1-c1ccccc1)c1ccc(C(F)(F)F)cc1 [Example 10, N-(6-phenyl-3,3′-bipyridin-5-yl)-4-(trifluoromethyl)benzamide] | 1600 nM
C[C@@H](CO)NC(=O)c1cnc(-c2ccccc2)c(NC(=O)c2cc(-c3ccn(C)n3)c(C(F)(F)F)cc2F)c1 [Example 85, (S)-5-(2-fluoro-5-(1-methyl-1H-pyrazol-3-yl)-4-(trifluoromethyl)benzamido)-N-(1-hydroxypropan-2-yl)-6-phenylnicotinamide] | 0.58 nM
Cc1cnn(-c2ccncc2NC(=O)c2ccc(C(F)(F)F)c(-c3ccn(C)n3)c2)c1 [Example 19, 3-(1-methyl-1H-pyrazol-3-yl)-N-[4-(4-methyl-1H-pyrazol-1-yl)pyridin-3-yl]-4-(trifluoromethyl)benzamide] | 25 nM
Cn1ccc(-c2cc(C(=O)Nc3cc(-c4ccc(C(C)(C)O)cn4)cnc3-c3ccccc3)c(F)cc2C(F)(F)F)n1 [Example 172, 2-fluoro-N-(5-(2-hydroxypropan-2-yl)-6′-phenyl-[2,3′-bipyridin]-5′-yl)-5-(1-methyl-1H-pyrazol-3-yl)-4-(trifluoromethyl)benzamide] | 0.26 nM
Cn1ccc(-c2cc(C(=O)Nc3cnc(CN4CCCOC4=O)nc3-c3ccccc3)c(F)cc2C(F)(F)F)n1 [Example 222, 2-fluoro-5-(1-methyl-1H-pyrazol-3-yl)-N-(2-((2-oxo-1,3-oxazinan-3-yl)methyl)-4-phenylpyrimidin-5-yl)-4-(trifluoromethyl)benzamide] | 0.22 nM
Cn1ccc(-c2cc(C(=O)Nc3cnc(CN4CCCCC4=O)nc3-c3ccccc3)c(F)cc2C(F)(F)F)n1 [Example 220, 2-fluoro-5-(1-methyl-1H-pyrazol-3-yl)-N-(2-((2-oxopiperidin-1-yl)methyl)-4-phenylpyrimidin-5-yl)-4-(trifluoromethyl)benzamide] | 1 nM
Cn1ccc(-c2cc(C(=O)Nc3cnc(CNC(=O)CN4CCOC4=O)nc3-c3ccccc3)c(F)cc2C(F)(F)F)n1 [Example 70, 2-fluoro-5-(1-methyl-1H-pyrazol-3-yl)-N-(2-((2-(2-oxooxazolidin-3-yl)acetamido)methyl)-4-phenylpyrimidin-5-yl)-4-(trifluoromethyl)benzamide] | 0.53 nM
Cc1cnn(-c2ccc(C(N)=O)cc2NC(=O)c2ccc(C(F)(F)F)c(-c3ccn(C)n3)c2)c1 [Example 86, N-(5-carbamoyl-2-(4-methyl-1H-pyrazol-1-yl)phenyl)-3-(1-methyl-1H-pyrazol-3-yl)-4-(trifluoromethyl)benzamide] | 19 nM
Cn1ccc(-c2cc(C(=O)Nc3cnc(CNS(C)(=O)=O)nc3-c3ccccc3)ccc2C(F)(F)F)n1 [Example 75, 3-(1-methyl-1H-pyrazol-3-yl)-N-(2-(methylsulfonamidomethyl)-4-phenylpyrimidin-5-yl)-4-(trifluoromethyl)benzamide] | 12 nM

The remaining lines, values ahead:

IC50 | SMILES
1.1 nM | Cn1ccc(-c2cc(C(=O)Nc3cnc(CC(N)=O)cc3-c3ccccc3)c(F)cc2C(F)(F)F)n1 [Example 101, N-(6-(2-Amino-2-oxoethyl)-4-phenylpyridin-3-yl)-2-fluoro-5-(1-methyl-1H-pyrazol-3-yl)-4-(trifluoromethyl)benzamide]
1.2 nM | Cn1ccc(-c2cc(C(=O)Nc3cnc(CC(=O)NC[C@@H]4CCCO4)nc3-c3ccccc3)c(F)cc2C(F)(F)F)n1 [Example 107, (S)-2-fluoro-5-(1-methyl-1H-pyrazol-3-yl)-N-(2-(2-oxo-2-(((tetrahydrofuran-2-yl)methyl)amino)ethyl)-4-phenylpyrimidin-5-yl)-4-(trifluoromethyl)benzamide]
0.68 nM | Cn1ccc(-c2cc(C(=O)Nc3cnc(CN4C(=O)CCC4=O)nc3-c3ccccc3)c(F)cc2C(F)(F)F)n1 [Example 187, N-(2-((2,5-dioxopyrrolidin-1-yl)methyl)-4-phenylpyrimidin-5-yl)-2-fluoro-5-(1-methyl-1H-pyrazol-3-yl)-4-(trifluoromethyl)benzamide]
0.84 nM | Cn1ccc(-c2cc(C(=O)Nc3cnc(CNC(N)=O)nc3-c3ccccc3)c(F)cc2C(F)(F)F)n1 [Example 76, 2-Fluoro-5-(1-methyl-1H-pyrazol-3-yl)-N-(4-phenyl-2-(ureidomethyl)pyrimidin-5-yl)-4-(trifluoromethyl)benzamide]
4.9 nM | Cc1ccccc1-c1nc(CC(N)=O)ncc1NC(=O)c1cc(-c2ccn(C)n2)c(C(F)(F)F)cc1F [Example 117, N-(2-(2-amino-2-oxoethyl)-4-(o-tolyl)pyrimidin-5-yl)-2-fluoro-5-(1-methyl-1H-pyrazol-3-yl)-4-(trifluoromethyl)benzamide]
8.7 nM | Cn1ccc(-c2cc(C(=O)Nc3ncc(CC(N)=O)nc3-c3ccccc3)c(F)cc2C(F)(F)F)n1 [Example 120, N-(5-(2-amino-2-oxoethyl)-3-phenylpyrazin-2-yl)-2-fluoro-5-(1-methyl-1H-pyrazol-3-yl)-4-(trifluoromethyl)benzamide]
3.7 nM | Cn1ccc(-c2cc(C(=O)Nc3cc(CC(N)=O)cnc3-c3ccccc3)c(F)cc2C(F)(F)F)n1 [Example 202, N-(5-(2-Amino-2-oxoethyl)-2-phenylpyridin-3-yl)-2-fluoro-5-(1-methyl-1H-pyrazol-3-yl)-4-(trifluoromethyl)benzamide]
